Marks after values point to notes of the source that are not given here. Positions of bridges follow the written chain, without caps; N, C: chain ends. Residues, ends and D or L forms follow the SMILES beside them.
Key:
Assay type in all cases: cell-based
[1] = tested on: Salmonella typhimurium, PhoP^−; assay: Microbicidal suspension assay, killing quantified by colony counts; details: 2 hr, 10 mM PIPES, pH 7.4, 5 mM glucose; FIG. 9
Candida albicans = assay: as above
Cryptococcus neoformans = assay: Agar diffusion assay; details: 10, 30, 100 or 300 μg/ml; agar seeded with 1×10^6 colony forming units
Description: (§1) Agar diffusion assays and microbicidal suspension assays were used to examine the activity of theta defensin against Staphylococcus aureus 502A, Escherichia coli ML35, Listeria monocytogenes, and Cryptococcus neoformans.

Listeria monocytogenes = assay: Agar diffusion assay; details: 10, 30, 100 or 300 μg/ml; agar seeded with 1×10^6 colony forming units
Description: as §1

[2] = tested on: Listeria monocytogenes EDG; assay: Microbicidal suspension assay, killing quantified by colony counts; details: for % killed: RTD-1 10 mg/ml, 2 h, 37 C.
Escherichia coli ML35 [3] = assay: as above; details: for % killed: 2 h, 37 C.
Description: Additional antimicrobial assays were conducted on other microbial organisms. […] In FIG. 9A, S. aureus 502a was incubated with increasing concentrations of natural or synthetic peptide for 30 min at 37° C. in 10 mM PIPES, pH 7.4, containing 5 mM glucose. Killing was quantified by colony counts. […] The limit of detection (1 colony per plate) was equal to 1×10^3 colony forming units in the incubation mixture.
(§2) An acyclic version of theta defensin was also tested for antimicrobial activity. […] Killing activity was quantified by colony counts after 18 hrs.
(§3) The microbicidal activity in the presence of physiological salt concentrations was tested against various microorganisms in various buffers.

[4] = tested on: Staphylococcus aureus 502a; assay: as above; details: for % killed: 37 C.
Description: Killing was quantified by colony counts.
Additional antimicrobial assays were conducted on other microbial organisms. […] In FIG. […] Killing was quantified by colony counts. […] The limit of detection (1 colony per plate) was equal to 1×10^3 colony forming units in the incubation mixture.
It has been proposed that salt sensitivity of airway defensins underlies the susceptibility of cystic fibrosis patients to pulmonary infections.
as §2, §3

[5] = tested on: Staphylococcus aureus 502a; assay: Agar diffusion assay
Description: (§4) The purified chromatographic peaks were screened for antibacterial activity against Escherichia coli ML35 and Staphylococcus aureus 502a. Briefly, antibacterial activity was screened with an agar diffusion assay using lyophilized samples of HPLC fractions dissolved in 5 μl of 0.01% acetic acid as described by Lehrer et al., J. Immunol. Methods 137:167-173 (1991)).
as §1

Escherichia coli ML35 [6] = assay: Agar diffusion assay
Description: as §4, §1

[7] = tested on: Cryptococcus neoformans 271a; assay: Microbicidal suspension assay, killing quantified by colony counts; details: for % killed: RTD-1 10 mg/ml, 2 h, 37 C.
[8] = 2 hr, 10 mM PIPES, pH 7.4, 5 mM glucose, FIG. 9
[9] = 10 mM PIPES, pH 7.4, 5 mM glucose, 150 mM NaCl
[10] = 10, 30, 100 or 300 μg/ml, agar seeded with 1×10^6 colony forming units

## CC[C@H](C)[C@@H]1NC(=O)[C@@H]2CSSC[C@H](NC(=O)[C@H](CCCNC(=N)N)NC(=O)[C@@H]3CSSC[C@H](NC1=O)C(=O)N[C@@H]([C@@H](C)O)C(=O)N[C@@H](CCCNC(=N)N)C(=O)NCC(=O)N[C@@H](Cc1ccccc1)C(=O)N3)C(=O)N[C@@H](CC(C)C)C(=O)N[C@H]1CSSC[C@H](NC(=O)[C@H](C(C)C)NC(=O)CNC(=O)[C@H](CCCNC(=N)N)NC(=O)[C@H](CCCNC(=N)N)NC1=O)C(=O)N[C@@H](CCCNC(=N)N)C(=O)N2 [RTD-1] (cyclo(GFCRCLCRRGVCRCICTR); disulfide 3-16, 5-14, 7-12)
[1]
  microbicidal activity (killing): killed
Candida albicans; [8]
  microbicidal activity (killing): killed
Candida albicans; RTD-1 10 mg/ml, 2 h, 37 C., 10 mM Tris HCl, pH 7.4, 150 mM NaCl
  % killed: >98%
Cryptococcus neoformans
  zone of inhibition: dose dependent increase
Listeria monocytogenes
  zone of inhibition: dose dependent increase
[2]; [8]
  microbicidal activity (killing): killed
[2]; [9]
  % killed: >99.99%
[2]; 10 mM Tris HCl, pH 7.4, 150 mM NaCl
  % killed: >99.99%
Escherichia coli ML35 [3]; [8]
  microbicidal activity (killing): killed
Escherichia coli ML35 [3]; RTD-1 25 mg/ml, 10 mM Tris-HCl, pH 7.4, 25% human AB serum
  % killed: >99* %
Escherichia coli ML35 [3]; RTD-1, 10 mM PIPES, pH 7.4, 5 mM glucose, 150 mM NaCl
  % killed: >99%
Escherichia coli ML35 [3]; RTD-1, 10 mM Tris-HCl, pH 7.4, 150 mM NaCl
  % killed: >99.99%
Escherichia coli ML35 [3]; gram negative bacteria (E. coli)
  activity of cyclic form relative to acyclic form: about three times more active
[4]; 10 μg/ml peptide, 2 h, NaCl concentrations as high as 150 mM
  effect of NaCl on staphylocidal activity: little effect
[4]; 10 mM PIPES, pH 7.4, 5 mM glucose, 37° C., FIG. 9
  microbicidal activity (killing): killed
[4]; 2 h, 10 mM PIPES, pH 7.4, 5 mM glucose, 150 mM NaCl, 1-2 × 10^6 CFU/ml
  % killed: >99%
[4]; 2 h, 10 mM Tris-HCl, pH 7.4, 150 mM NaCl
  % killed: >99.99%
[4]; 2 h at 37° C. in 10 mM PIPES, pH 7.4
  peptide concentration reducing colony counts to below the level of detection: ≥ 4 µg/mL
[4]; RTD-1 25 mg/ml, 2 h, 10 mM Tris-HCl, pH 7.4, 50% human AB serum
  % killed: >99* %
[5]; [10]
  zone of inhibition: dose dependent increase
[5]; screen of purified HPLC peaks
  antibacterial activity compared with the other leukocyte peptides isolated: greatest activity
Escherichia coli ML35 [6]; [10]
  zone of inhibition: dose dependent increase
Escherichia coli ML35 [6]; screen of purified HPLC peaks
  antibacterial activity compared with the other leukocyte peptides isolated: greatest activity
[7]; [8]
  microbicidal activity (killing): killed
[7]; [9]
  % killed: >99.99%
[7]; 10 mM Tris-HCl, pH 7.4, 150 mM NaCl
  % killed: >99.99%
